# Results: patent publication US10683546B2, “Kit for predicting treatment with glucocorticoids and method comprising the same” (UNIVERSIDAD DE CHILE, priority 2015, dated 2020)
# Where “and” joins values, the source holds several entries; their conditions need not be identical. Identical values can stand only once.
# System: GRα mRNA levels in PBMC
# Assay: Fold change ratio of GRα mRNA levels in PBMC of VKH patients after two weeks of prednisone (GC) treatment, RT-qPCR
# Format: in vivo, human
# Conditions: for Fold change ratio of GR levels in PBMC: after two weeks of Prednisone treatment vs baseline, oral 1 mg/Kg/day, 1 mg/kg/day; for GRα mRNA fold change median / GRα mRNA fold change range: two weeks of systemic GC therapy vs baseline
# Method: 1) Obtainment of a 10-100 ml blood sample—preferably collected in the morning by automatic aspiration (vacutainer®) or manual (disposable syringe) methods. As an alternative or complementarily, the affected tissue or cell type may be completely or partially removed in order to carry out measurements.
# 2) After obtaining the sample, peripheral mononuclear cells (PBMC) are procured by the Ficoll gradient method, where a hydrophilic polysaccharide allows separating blood components into plasma, PBMC and erythrocytes. Alternatively or complementarily, the isolation of specific cell sub-types, such as CD4+, CD14+, CD8+cells, among others, may be conducted using a strategy based on magnetic microbeads or cell sorting by flow cytometry.
# 3) Subsequently, total RNA is extracted (Life Technologies, Inc.) by the TRIZOL method. For the obtainment of cDNA, 0.5 to 2 μg RNA is used as a template. Reverse transcription is performed preferably with kit ImProm-II™ Reverse Transcription System (Promega): a reaction mixture is prepared with 0.5 to 2 μg RNA, 1 μL Random Hexamers, 4 μL 5× ImProm-II™ RT buffer up to a final 20 μL volume, which is then incubated at 70° C. for 5 minutes, 4° C. for 5 minutes, 25° C. for 5 minutes, 42° C. for 60 minutes and 25° C. for 5 minutes.
# 4) cDNA is amplified using primers specific for GRα isoform: 5′-[…]-3′ (sense, SEQ ID NO: 1) and 5′-[…]-3′ (antisense, SEQ ID NO: 2) that correspond to nucleotides 2158-2178 and 2616-2635 of GRα cDNA.
# 5) For the amplification, a cDNA polymerase is used, preferably, the enzyme Go Taq® Flexi DNA Polymerase (Promega), starting the reaction with an initial 5 minute incubation at 95° C., followed then by 30 cycles as detailed: 95° C. for 30 seconds, 60° C. for 30 seconds and 72° C. for 30 seconds. For quantification by Real-Time qPCR a fluorophore is used, using preferably SYBR Green as fluorophore. GR measurements are made in duplicate. Finally, the results are standardized according to the expression of 18s rDNA gene that codes for the 18s ribosomal subunit.
# 6) Repetition of GRα mRNA level assessment according to the described protocol is carried out two weeks after initiating GC treatment. An increase is observed in GRα expression in sensitive patients and a reduction of the same in resistant patients (median of 5.5 versus 0.7, respectively).
# 7) Calculation of fold change ratio in GRα mRNA levels between the initial assessment and a later assessment after 2 weeks of GC treatment. GR fold change ratio=GR mRNA-2 weeks/GR mRNA at baseline
# The method described in the present invention has been assessed in a group of 21 patients with Vogt-Koyanagi-Harada (VKH) disease, a specific uveitis subtype.
# Cases: 13 patients affected by VKH with an inadequate response to oral treatment with 1 mg/Kg/day prednisone, in two separate doses, ⅔ of the daily dose in the morning and ⅓ of the dose in the afternoon.
# Controls: 8 patients affected by VKH with an adequate response to the oral treatment with 1 mg/Kg/day prednisone, in two separate doses, ⅔ of the daily dose in the morning and ⅓ of the dose in the afternoon.
# An analysis was conducted on the fold change ratio of GR transcript expression two weeks after treatment initiation, in comparison with baseline levels (prior to treatment initiation), segregating in accordance with the clinical response during follow-up. To calculate this fold change ratio, an arithmetic operation is conducted, that consists in dividing the GR levels obtained two weeks after the treatment and the baseline or initial GR levels. GR fold change ratio=GR mRNA-2 weeks/GR mRNA at baseline
# [1] = patients clinically sensitive to GC
smiles,measurement,setting,value
"C[C@]12C=CC(=O)C=C1CC[C@@H]1[C@@H]2C(=O)C[C@@]2(C)[C@H]1CC[C@]2(O)C(=O)CO [Prednisone, prednisone]",Fold change ratio of GR levels in PBMC,individual patients with Vogt-Koyanagi-Harada disease clinically Resistant to GC,0.667 and 0.225 and 0.243 and 0.841 and 0.759
same,Fold change ratio of GR levels in PBMC,individual patients with Vogt-Koyanagi-Harada disease clinically Sensitive to GC,5.21 and 8.49 and 2.53 and 0.237 and 17.8 and 15 and 5.52
same,GRα mRNA fold change median,[1],5.5
same,GRα mRNA fold change range,[1],0.23-17.8
same,GRα mRNA fold change median,patients resistant to GC,0.7
same,GRα mRNA fold change range,patients resistant to GC,0.22-0.84
